In US8362000B2, “Azetidinyl diamides as monoacylglycerol lipase inhibitors” (Janssen Pharmaceutica NV, priority 2009, dated 2013):
Changes are numbered by the printed parent chain. Read-outs that look alike come from different tables or passages of the source.

How the values were obtained:
[1] = target: T1, purified wild type MGL (wt-MGLL 6H-11-313) (Homo sapiens, UniProt Q99685)
T1 sequence (Q99685 1-303): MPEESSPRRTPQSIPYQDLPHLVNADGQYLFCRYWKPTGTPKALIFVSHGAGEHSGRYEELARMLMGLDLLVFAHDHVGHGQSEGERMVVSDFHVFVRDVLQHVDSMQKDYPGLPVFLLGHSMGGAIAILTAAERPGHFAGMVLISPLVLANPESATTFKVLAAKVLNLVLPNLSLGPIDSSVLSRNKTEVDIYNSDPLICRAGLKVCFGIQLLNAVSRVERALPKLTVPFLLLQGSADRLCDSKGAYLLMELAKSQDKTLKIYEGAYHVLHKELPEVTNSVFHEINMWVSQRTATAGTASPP

[2] = target: T2, mutant MGL (Homo sapiens, UniProt Q99685, L169S/L176S); test: MGL ThermoFluor assay - mutant; format: binding
T2 sequence (Q99685 1-303 L169S/L176S): T1 sequence (Q99685 1-303) with L169S, L176S

[3] = ThermoFluor concentration-response, read-out: MGL mutant ThermoFluor Kd
[4] = ThermoFluor, compound concentration measured by qNMR, read-out: MGL mutant ThermoFluor qKd (using qNMR conc.)
[5] = ThermoFluor, compound concentration measured by qNMR, read-out: MGL mutant ThermoFluor qKd (μM) (using qNMR conc.)
[6] = ThermoFluor thermal stability binding assay, read-out: MGL mutant ThermoFluor Kd
[7] = compound concentration measured by qNMR, read-out: MGL mutant ThermoFluor qKd (using qNMR conc.)

Row | SMILES | IC50 [1] [nM] | Kd [2, 3] [µM] | also measured
1 | O=C(c1ccccc1)N1CC(N2CCN(C(=O)c3cc4cc(C(F)(F)F)ccc4s3)C(c3ccccc3)C2)C1 (stereo not drawn) [Cpd 517] | 1340 | 0.05 | 
2 | O=C(c1ccc(-c2ccccc2)cc1)N1CCN(C2CN(C(=O)c3csnn3)C2)CC1 [Cpd 1276, 1-(Biphenyl-4-ylcarbonyl)-4-[1-(1,2,3-thiadiazol-4-ylcarbonyl)azetidin-3-yl]piperazine] | 1760 | 0.807 | 
3 | O=C(c1ccc2[nH]c(C3CCCCC3)nc2c1)N1CCN(C2CN(C(=O)c3cscn3)C2)CC1 [Cpd 853] | 8340 | 1 | 
4 | COc1ccc2c(C)c(C(=O)N3CC(N4CCN(C(=O)c5cscn5)CC4)C3)oc2c1 [Cpd 850] | 7280 | 1 | 
5 | Cc1c(Cc2ccc(C(F)(F)F)cc2)cccc1C(=O)N1CC(N2CCN(C(=O)c3ccns3)CC2)C1 [Cpd 1014] | 257 | 0.903 | 
6 | Cc1nc2c(C)ccc(Cl)c2cc1C(=O)N1CC(N2CCN(C(=O)c3nccs3)CC2)C1 [Cpd 791] | 1450 |  | Kd [2, 4]: 0.402 µM
7 | O=C(c1cn2cc(Br)ccc2n1)N1CC(N2CCN(C(=O)c3nccs3)CC2)C1 [Cpd 873] | 14700 |  | Kd [2, 4]: 9.2 µM
8 | O=C(c1ccccc1)N1CCN(C2CN(C(=O)c3sc4cc(F)ccc4c3C3CCC3)C2)CC1 [Cpd 513] | 371 | 0.009 | 
9 | Cc1c(C(=O)N2CC(N3CCN(C(=O)c4ccccc4)CC3)C2)sc2cc(F)ccc12 [Cpd 516] | 465 |  | Kd [2, 6]: 0.04 µM
10 | O=C(c1ccc2c(c1)ncn2CCC(F)(F)F)N1CC(N2CCN(C(=O)c3nccs3)CC2)C1 [Cpd 780] | 978 |  | Kd [2, 7]: 0.128 µM
11 | O=C(c1ccc(Oc2ccc(Cl)cn2)cc1)N1CC(N2CCN(C(=O)c3cscn3)CC2)C1 [Cpd 757] | 530 | 0.781 | 
12 | O=C(c1cscn1)N1CCN(C2CN(C(=O)c3cn(-c4cccc(F)c4)c4ccccc34)C2)CC1 [Cpd 1279] | 1900 |  | Kd [2, 5]: 1.86 µM
13 | Cc1cc(-c2cccc(C(F)(F)F)c2)ccc1C(=O)N1CCN(C2CN(C(=O)c3nccs3)C2)CC1 [Cpd 1260] | 862 | 0.221 | 
14 | O=C(c1cc2ccc(C(F)(F)F)nc2o1)N1CC(N2CCN(C(=O)c3nccs3)CC2)C1 [Cpd 844] | 6100 | 62.5 | 
15 | O=C(c1nccs1)N1CC(N2CCN(C(=O)c3ccc(-c4ccccc4)cc3)C(Cc3ccccc3)C2)C1 (stereo not drawn) [Cpd 1266, 2-Benzyl-1-(biphenyl-4-ylcarbonyl)-4-[1-(1,3-thiazol-2-ylcarbonyl)azetidin-3-yl]piperazine] | 1080 | 0.032 | 
16 | Cc1nc2cc(C(=O)N3CCN(C4CN(C(=O)c5ccccc5)C4)CC3)ccc2n1C1CCCCC1 [Cpd 523] | 3130 | 0.686 | 
17 | CC(C)(C)OC(=O)N1CCc2cccc(C(=O)N3CC(N4CCN(C(=O)c5cscn5)CC4)C3)c2C1 [Cpd 861] | 9220 |  | Kd [2, 6]: 2.63 µM
18 | O=C(c1ccc2c(c1)[nH]c(=O)n2CC(F)(F)F)N1CC(N2CCN(C(=O)c3nccs3)CC2)C1 [Cpd 937] | 250 | 0.096 | 
19 | O=C(c1cnc2ccn(-c3ccc(F)cc3)c2c1)N1CC(N2CCN(C(=O)c3nccs3)CC2)C1 [Cpd 1277] | 1830 |  | Kd [2, 5]: 2.72 µM
20 | O=C(c1ccc2c(c1)[nH]c(=O)n2CCC(F)(F)F)N1CC(N2CCN(C(=O)c3cscn3)CC2)C1 [Cpd 944] | 7320 | 0.802 | 
21 | O=C(c1ccc(-c2ccccc2)cc1)N1CCN(C2CN(C(=O)c3cc[nH]c3)C2)CC1 [Cpd 1292, 1-(Biphenyl-4-ylcarbonyl)-4-[1-(1H-pyrrol-3-ylcarbonyl)azetidin-3-yl]piperazine] | 3070 | 0.631 | 
22 | O=C(c1ccc2c(c1)[S+]([O-])c1ccccc1O2)N1CC(N2CCN(C(=O)c3nccs3)CC2)C1 (stereo not drawn) [Cpd 807] | 2080 |  | Kd [2, 7]: 3.65 µM
23 | O=C(c1ccc[nH]1)N1CCN(C2CN(C(=O)c3cc4ccc(C(F)(F)F)nc4[nH]3)C2)CC1 [Cpd 1447] | > 16700 |  | Kd [2, 5]: 3.33 µM
24 | O=C(c1ccc(OCc2cncc(Cl)c2)cc1)N1CC(N2CCN(C(=O)C(F)(F)F)CC2)C1 [Cpd 979] | 648 |  | Kd [2, 7]: 1.14 µM
25 | COc1cccc2c(C)c(C(=O)N3CC(N4CCN(C(=O)c5ccccc5)CC4)C3)[nH]c12 [Cpd 526] | 8100 | 4.98 | 
26 | O=C(c1cscn1)N1CCN(C2CN(C(=O)c3cccc4nc(-c5ccccc5)oc34)C2)CC1 [Cpd 1237] | 393 |  | Kd [2, 6]: 0.064 µM
27 | Cc1c(C(=O)N2CC(N3CCN(C(=O)c4cscn4)CC3)C2)sc2cc(F)ccc12 [Cpd 742] | 306 |  | Kd [2, 6]: 0.02 µM
28 | Cc1nc2cc(Cl)ccc2cc1C(=O)N1CC(N2CCN(C(=O)c3nccs3)CC2)C1 [Cpd 826] | 3290 |  | Kd [2, 4]: 0.663 µM
29 | Cc1nc2cc(C(=O)N3CC(N4CCN(C(=O)c5cscn5)CC4)C3)ccc2n1-c1ccc(C(F)(F)F)cc1 [Cpd 1289] | 2600 |  | Kd [2, 7]: 0.13 µM
30 | O=C(c1ccc(-c2ccccc2)cc1)N1CC(N2CCN(C(=O)c3nccs3)CC2C(F)(F)F)C1 (stereo not drawn) [Cpd 1306, 1-[1-(Biphenyl-4-ylcarbonyl)azetidin-3-yl]-4-(1,3-thiazol-2-ylcarbonyl)-2-(trifluoromethyl)piperazine] | 8150 |  | Kd [2, 5]: 12.2 µM

Stronger by IC50 [1], values ahead:

Row | IC50 [1] [nM] | Kd [2, 3] [µM] | SMILES | also measured
31 | 36 |  | O=C(c1ccc2c(ccn2-c2ccc(F)cc2)c1)N1CC(N2CCN(C(=O)c3cnco3)CC2)C1 [Cpd 1429] | Kd [2, 5]: 0.097 µM
32 | 18 |  | Cc1nn(Cc2ccc(Cl)cc2)c2sc(C(=O)N3CC(N4CCN(C(=O)c5nccs5)CC4)C3)cc12 [Cpd 1053] | Kd [2, 4]: 0.247 µM
33 | 152 | 0.065 | Cc1nc(-c2ccccc2F)sc1C(=O)N1CC(N2CCN(C(=O)c3nccs3)CC2)C1 [Cpd 1202] | 
34 | 32 |  | Cc1nn(-c2cccc(C(F)(F)F)c2)c2sc(C(=O)N3CC(N4CCN(C(=O)c5nccs5)CC4)C3)cc12 [Cpd 1146] | Kd [2, 4]: 0.08 µM
35 | 9 |  | O=C(c1ccc(-c2cccc(C(F)(F)F)c2)cc1)N1CC(N2CCN(C(=O)c3ccc(Cl)o3)CC2)C1 [Cpd 1078] | Kd [2, 5]: 0.005 µM
36 | 180 | 0.082 | O=C(c1ccc[nH]1)N1CC(N2CCN(C(=O)c3cc4cc(C(F)(F)F)ccc4s3)CC2)C1 [Cpd 722, 1-[1-(1H-Pyrrol-2-ylcarbonyl)azetidin-3-yl]-4-{[5-(trifluoromethyl)-1-benzothiophen-2-yl]carbonyl}piperazine] | 
37 | 6 |  | O=C(c1ccc(-c2cccc(C(F)(F)F)c2)cc1)N1CC(N2CCN(C(=O)C3CC3)CC2)C1 [Cpd 1057] | Kd [2, 5]: 0.016 µM
38 | 72 |  | O=C(c1ccccc1)N1CCN(C2CN(C(=O)c3ccc4c(ccn4-c4ccc(Cl)c(F)c4)c3)C2)CC1 [Cpd 568] | Kd [2, 5]: 0.099 µM
39 | 75 |  | O=C(c1ccc2c(ccn2-c2ccc(Cl)cn2)c1)N1CC(N2CCN(C(=O)c3cscn3)CC2)C1 [Cpd 1180, 1-(5-Chloropyridin-2-yl)-5-({3-[4-(1,3-thiazol-4-ylcarbonyl)piperazin-1-yl]azetidin-1-yl}carbonyl)-1H-indole] | Kd [2, 4]: 0.019 µM
40 | < 5 | 0.089 | Cc1c(Cc2ccc(C(F)(F)F)cc2)cccc1C(=O)N1CC(N2CCN(C(=O)c3nccs3)CC2)C1 [Cpd 1008] | 
41 | 120 | 0.023 | Cn1nc(-c2ccc(F)cc2)c2cc(C(=O)N3CC(N4CCN(C(=O)c5nccs5)CC4)C3)ccc21 [Cpd 1195] | 
42 | 105 | 0.002 | Cc1ccc2c(C(F)(F)F)c(C(=O)N3CC(N4CCN(C(=O)c5nccs5)CC4)C3)sc2c1 [Cpd 707, 1-(1-{[6-Methyl-3-(trifluoromethyl)-1-benzothiophen-2-yl]carbonyl}azetidin-3-yl)-4-(1,3-thiazol-2-ylcarbonyl)piperazine] | 
43 | 80.8 |  | O=C(c1ccccc1)N1CCN(C2CN(C(=O)c3ccc(-c4cccc(C(F)(F)F)c4)cc3Cl)C2)CC1 [Cpd 252, 1-(1-{[3-Chloro-3′-(trifluoromethyl)biphenyl-4-yl]carbonyl}azetidin-3-yl)-4-(phenylcarbonyl)piperazine] | Kd [2, 6]: 0.05 µM
44 | 216 |  | Cc1nccc(-n2ccc3cc(C(=O)N4CC(N5CCN(C(=O)c6nccs6)CC5)C4)ccc32)n1 [Cpd 1216, 1-(2-Methylpyrimidin-4-yl)-5-({3-[4-(1,3-thiazol-2-ylcarbonyl)piperazin-1-yl]azetidin-1-yl}carbonyl)-1H-indole] | Kd [2, 4]: 0.022 µM
45 | < 5 | 0.0033 | O=C(c1ccc(-c2ccc(C(F)(F)F)cc2)cc1)N1CC(N2CCN(C(=O)c3nccs3)CC2)C1 [Cpd 150, 1-(1,3-Thiazol-2-ylcarbonyl)-4-(1-{[4′-(trifluoromethyl)biphenyl-4-yl]carbonyl}azetidin-3-yl)piperazine] | 
